The values that follow come from patent US20090203753A1, “7-(2-amino-1-hydroxy-ethyl)-4-hydroxybenzothiazol-2(3H)-one-derivatives as beta2 adrenoreceptor agonists” (AstraZeneca AB, priority 2005, published 2009).

Experiment [1] deals with T1, β2 receptor (Homo sapiens, UniProt P07550).
T1 construct: endogenous in cells; host or cells: H292 cells
The experiment can be described thus: β2 mediated cAMP production in H292 cells, AlphaScreen cAMP detection (10 minutes with test compound). The experiment is classed as cell-based. How it is done:
H292 cells were grown in RPMI (Roswell Park Memorial Institute) medium containing, 10% (v/v) FBS (foetal bovine serum) and 2 mM L-glutamine. Cells were grown in 225 cm2 flasks containing 25 mL media in a humidified incubator at 37° C., 5% CO2. Cells were harvested from the flask and passaged at a 1 in 10 dilution once per week.
The media from flasks containing H292 cells was removed, rinsed with 10 mL PBS (phosphate buffered saline) and replaced with 10 mL Accutase™ cell detachment solution. Flasks were incubated for 15 minutes in a humidified incubator at 37° C., 5% CO2. The cell suspension was counted and the cells re-suspended in RPMI media (containing 10% (v/v) FBS and 2 mM L-glutamine) at 0.05×10^6 cells per mL. 5000 cells in 100 μL were added to each well of a tissue-culture-treated 96-well plate and the cells incubated overnight in a humidified incubator at 37° C., 5% CO2. The culture media was removed, washed twice with 100 μL assay buffer and replaced with 50 μL assay buffer. Cells were rested at room temperature for 20 minutes after which time 25 μL of rolipram (1.2 mM made up in assay buffer containing 2.4% (v/v) dimethylsulphoxide) was added. Cells were incubated with rolipram for 10 minutes after which time test compounds (made up as ×4 concentrated stocks in assay buffer containing 4% (v/v) dimethylsulphoxide) were added and the cells were incubated for 10 minutes at room temperature. Final rolipram concentration in the assay was 300 μM and final vehicle concentration was 1.6% (v/v) dimethylsulphoxide. The reaction was stopped by removing supernatants, washing once with 100 μL assay buffer and replacing with 50 μL lysis buffer. The cell monolayer was frozen at −80° C. for 30 minutes (or overnight).
The concentration of cAMP (cyclic adenosine monophosphate) in the cell lysate was determined using the AlphaScreen™ methodology. The frozen cell plate was thawed for 20 minutes on a plate shaker then 10 μL of the cell lysate was transferred to a 96-well white plate. 40 μL of mixed AlphaScreen™ detection beads (containing equal volumes of donor beads (pre-incubated with biotinylated cAMP in the dark for 30 minutes) and acceptor beads), was added to each well and the plate incubated at room temperature for 10 hours in the dark. The AlphaScreen™ signal was measured using an EnVision spectrophotometer (Perkin-Elmer Inc.) with the recommended manufacturer's settings. cAMP concentrations were determined by reference to a calibration curve determined in the same experiment using standard cAMP concentrations (made up in lysis buffer in a 96-well tissue-culture-treated plate and frozen/thawed alongside the test samples) and detected using the same protocol. Concentration response curves for agonists were constructed to determine both the pEC50 and Intrinsic Activity.

Experiment [2] deals with T2, recombinant human Dopamine Subtype D2s receptors (Homo sapiens, UniProt P14416).
T2 construct: purchased Perkin Elmer
T2 sequence (P14416 1-414 isoform P14416-2): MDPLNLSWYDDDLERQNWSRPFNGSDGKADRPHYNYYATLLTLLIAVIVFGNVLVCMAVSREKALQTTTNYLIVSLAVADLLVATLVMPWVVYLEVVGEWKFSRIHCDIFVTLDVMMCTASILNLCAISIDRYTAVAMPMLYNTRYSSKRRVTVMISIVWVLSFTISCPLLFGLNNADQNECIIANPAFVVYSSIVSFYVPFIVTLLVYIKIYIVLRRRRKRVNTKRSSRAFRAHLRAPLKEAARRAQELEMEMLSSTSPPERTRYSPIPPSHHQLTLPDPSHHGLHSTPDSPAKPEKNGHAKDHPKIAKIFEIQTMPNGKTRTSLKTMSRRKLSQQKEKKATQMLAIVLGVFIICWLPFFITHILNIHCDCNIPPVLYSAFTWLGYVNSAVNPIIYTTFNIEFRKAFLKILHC
The experiment can be described thus: Dopamine D2 selectivity assay, [3H]-spiperone binding to membranes. The settings on record: read-out: D2 bind pIC50 (converted). How it is done: Membranes containing recombinant human Dopamine Subtype D2s receptors were obtained from Perkin Elmer. These were diluted in Assay Buffer (50 mM HEPES, […], 120 mM NaCl, 0.1% gelatin, pH 7.4) to provide a final concentration of membranes that gave a clear window between maximum and minimum specific binding.
Assays were performed in U-bottomed 96-well polypropylene plates. 30 μL [^3H]-spiperone (0.16 nM final concentration) and 30 μL of test compound (10× final concentration) were added to each test well. For each assay plate 8 replicates were obtained for [^3H]-spiperone binding in the presence of 30 μL vehicle (10% (v/v) DMSO in Assay Buffer; defining maximum binding) or 30 μL Haloperidol (10 μM final concentration; defining non-specific binding (NSB)). Membranes were then added to achieve a final volume of 300 μL. The plates were incubated for 2 hours at room temperature and then filtered onto PEI coated GF/B filter plates, pre-soaked for 1 hour in Assay Buffer, using a 96-well plate Tomtec cell harvester. Five washes with 250 μL wash buffer (50 mM HEPES, 1 mM EDTA, 120 mM NaCl, pH 7.4) were performed at 4° C. to remove unbound radioactivity. The plates were dried then sealed from underneath using Packard plate sealers and MicroScint-O (50 μL) was added to each well. The plates were sealed (TopSeal A) and filter-bound radioactivity was measured with a scintillation counter (TopCount, Packard BioScience) using a 3-minute counting protocol.
Total specific binding (B0) was determined by subtracting the mean NSB from the mean maximum binding. NSB values were also subtracted from values from all other wells.

Structures are written as SMILES.

T1 sequence (P07550 whole entry): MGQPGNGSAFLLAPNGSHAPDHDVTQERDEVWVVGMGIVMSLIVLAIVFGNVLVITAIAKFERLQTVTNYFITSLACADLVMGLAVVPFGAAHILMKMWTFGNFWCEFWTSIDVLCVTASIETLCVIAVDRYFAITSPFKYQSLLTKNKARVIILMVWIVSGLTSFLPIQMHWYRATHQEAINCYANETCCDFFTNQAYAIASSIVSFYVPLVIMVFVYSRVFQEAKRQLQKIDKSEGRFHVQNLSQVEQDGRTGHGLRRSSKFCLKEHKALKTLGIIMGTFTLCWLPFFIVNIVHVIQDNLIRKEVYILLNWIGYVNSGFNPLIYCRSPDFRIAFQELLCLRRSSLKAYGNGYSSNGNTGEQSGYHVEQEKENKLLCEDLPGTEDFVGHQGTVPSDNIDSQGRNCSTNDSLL

Consider `CCN(CC)CCN(CCNC[C@H](O)c1ccc(O)c2[nH]c(=O)sc12)C(=O)CCOCCc1ccccc1` [Example 7, N-[2-(Diethylamino)ethyl]-N-(2-{[(2R)-2-hydroxy-2-(4-hydroxy-2-oxo-2,3-dihydro-1,3-benzothiazol-7-yl)ethyl]amino}ethyl)-3-(2-phenylethoxy)propanamide], for which the EC50 in experiment [1] (cAMP, 10 minutes incubation with compound, 300 μM rolipram) was 2.51 nM. Moreover, in experiment [1] (fraction relative to the maximum activity determined for formoterol, 10 minutes incubation), the “Intrinsic Activity” value is given as 1.1. Moreover, the IC50 in experiment [2] is 5010 nM.
